What was measured:
[1] = biological target: T1, TLR7 (Homo sapiens, UniProt Q9NYK1); assay: TLR7 in vitro potency; format: cell-based
T1 sequence (Q9NYK1 27-1049): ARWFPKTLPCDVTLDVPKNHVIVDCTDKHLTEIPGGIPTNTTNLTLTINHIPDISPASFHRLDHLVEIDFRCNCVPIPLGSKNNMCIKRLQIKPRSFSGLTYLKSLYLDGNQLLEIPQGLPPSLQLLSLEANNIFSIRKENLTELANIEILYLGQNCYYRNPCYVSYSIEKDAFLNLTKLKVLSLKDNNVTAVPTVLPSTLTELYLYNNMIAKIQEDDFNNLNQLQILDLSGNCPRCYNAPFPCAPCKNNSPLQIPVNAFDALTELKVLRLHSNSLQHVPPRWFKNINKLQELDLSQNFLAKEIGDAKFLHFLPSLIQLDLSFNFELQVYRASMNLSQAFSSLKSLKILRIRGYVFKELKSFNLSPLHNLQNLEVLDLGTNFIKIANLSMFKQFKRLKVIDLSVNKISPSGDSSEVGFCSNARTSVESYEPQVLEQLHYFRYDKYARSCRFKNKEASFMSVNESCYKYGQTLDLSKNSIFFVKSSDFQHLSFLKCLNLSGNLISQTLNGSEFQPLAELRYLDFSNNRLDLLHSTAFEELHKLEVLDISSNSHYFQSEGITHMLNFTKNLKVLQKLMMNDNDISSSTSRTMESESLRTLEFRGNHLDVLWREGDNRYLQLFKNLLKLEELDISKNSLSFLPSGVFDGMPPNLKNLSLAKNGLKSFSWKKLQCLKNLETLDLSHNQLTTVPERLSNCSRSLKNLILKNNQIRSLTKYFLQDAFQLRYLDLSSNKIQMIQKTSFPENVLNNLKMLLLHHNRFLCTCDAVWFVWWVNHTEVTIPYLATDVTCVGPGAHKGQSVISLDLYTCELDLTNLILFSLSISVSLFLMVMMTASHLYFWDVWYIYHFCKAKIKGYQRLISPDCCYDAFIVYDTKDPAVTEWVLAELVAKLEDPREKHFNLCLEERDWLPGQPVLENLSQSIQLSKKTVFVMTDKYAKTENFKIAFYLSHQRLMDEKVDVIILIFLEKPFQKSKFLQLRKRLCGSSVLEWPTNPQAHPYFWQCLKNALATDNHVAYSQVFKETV

[2] = test system: CT26 colon carcinoma; assay: Tumor growth inhibition, weekly intratumoral doses, CT26 tumor bearing mice (Example B3); format: in vivo, Balb/c mice; conditions: intratumoral on days 8, 16, 23; 1 μg molar equivalent of IMDQ (64-53a, 64-54a) or 0.63 ug (64-10a); to day 27
Procedure: The effect of weekly intratumoral doses of Compound No. 64-53a, Compound No. 64-54a, Compound No. 64-10a, or a PBS vehicle control on tumor growth inhibition was assessed in syngeneic CT26 colon carcinoma-bearing Balb/c mice. Compound No. 64-53a differs from Compound No. 64-53 in that it contains a monomethyl group adjacent to the disulfide cleavable linker rather than the disulfide variant. Compound No. 64-54a differs from Compound No. 64-54 in that it contains a (PEG)4 to the N-terminus of the peptide cleavable linker rather than a (PEG)12 variant. […] Compound No. 64-10a is the free amine (i.e., unconjugated) form of Compound No. 64-10, the structure of which is shown in Table 1. All in vivo procedures were conducted in accordance with approved Institutional Animal Care and Use Committee (IACUC) protocols. The animals were housed in a facility that is accredited by the Association for Accreditation and Laboratory Animal Care (AALAC, Frederick, Md.). […]
(§1) On day 0, mice were anesthetized with 1% isoflurane and 80,000 CT26 tumor cells in 200 μL of RMPI-1640 culture media plus 2.5% FBS were injected subcutaneously in the right flank. […] Tumor sizes were measured twice weekly from day 7 through day 27 with calipers, with tumor volumes calculated using the following formula: length, multiplied by width, multiplied by width, divided by 2.

[3] = test system: IL-6, IL-12p40, and TNFα protein levels; assay: Serum cytokine levels by ELISA after single subcutaneous footpad injection; format: in vivo, BALB/c mice; conditions: 2 hours after footpad injection
Procedure: (§2) Blood was drawn after 2 hours, serum samples were prepared and the IL-6, IL-12p40, and TNFα protein levels were measured by ELISA. Lower limit of quantification (LLOQ) for each of these assays was 31.3 pg/mL, and the dotted lines on graphs represent the LLOQ multiplied by serum dilution factor. Popliteal lymph nodes (draining node for the site of injection) were removed after 6 hours and stored in RNAlater (Qiagen, Hilden Del.) prior to tissue homogenization and isolation of RNA for gene expression analysis by TaqMan® using a StepOnePlus Real Time PCR system (Applied Biosystems, Foster City Calif.). Gene expression data are expressed as fold increase in gene induction relative to PBS control (mean±SEM).

[4] = test system: interferon-related genes (TLR7-mediated gene induction); assay: Gene expression in popliteal lymph nodes after single subcutaneous footpad injection; format: in vivo, BALB/c mice; conditions: 0.04 μg
Procedure: as §2

[5] = test system: CT26 colon carcinoma; assay: Tumor growth inhibition in combination with anti-PD-1, two contralateral CT26 tumors (Example B6); format: in vivo, Balb/c mice; conditions: 500 ng IMDQ equivalent intratumorally in combination with anti-PD-1 250 μg intraperitoneally
Procedure: All in vivo procedures were conducted in accordance with approved Institutional Animal Care and Use Committee (IACUC) protocols. The animals were housed in a facility that is accredited by the Association for Accreditation and Laboratory Animal Care (AALAC, Frederick, Md.). Wild-type female Balb/c mice (15-20 g) were obtained from Envigo (Hayward, Calif.) and acclimated for 2-3 days prior to use. On experimental day 0, mice were anesthetized with 1% isoflurane, and 80,000 CT26 tumor cells in 200 uL of RMPI-1640 culture media plus 2.5% fetal bovine serum were injected subcutaneously in both the right and left flanks. Tumors (left and right) were allowed to grow until day 9, when the right and left flank tumor sizes had reached approximately 35 mm^3, at which point mice were injected intraperitoneally with 250 μg of anti-PD-1 antibody formulated in PBS or a PBS vehicle control. The anti-PD-1 treatments were repeated on experimental days 12, 16, 20, 23, and 28. On experimental day 15, when the right (injected) and left (distal) flank tumors had reached approximately 100 mm^3, mice were randomized into treatment groups with 10 mice per group. […] Tumor sizes were measured twice weekly from days 15 through day 30 with calipers, with tumor volumes calculated using the formula: length, multiplied by width, multiplied by width, divided by 2.

[6] = test system: CD86; assay: APC maturation marker CD86 by flow cytometry after subcutaneous footpad injection; format: in vivo, BALB/c mice; conditions: 1.8 μg IMDQ molar equivalents, both hind footpads, 24 hours
Procedure: Popliteal lymph nodes and spleens were harvested after 24 hours, and single cell suspensions were prepared for subsequent staining and analysis by flow cytometry using antibodies to cell surface markers to identify different APCs and lymphocyte cell populations.

[7] = test system: CT26 colon carcinoma; assay: Tumor growth inhibition, weekly intratumoral doses, CT26 tumor bearing mice (Example B4); format: in vivo, Balb/c mice; conditions: 500 ng IMDQ equivalent mass intratumorally on days 9, 16, 23 and 28; single flank tumor
Procedure: Compound No. 64-70 is a non-cleavable variant. All in vivo procedures were conducted in accordance with approved Institutional Animal Care and Use Committee (IACUC) protocols. The animals were housed in a facility that is accredited by the Association for Accreditation and Laboratory Animal Care (AALAC, Frederick, Md.). Wild-type female Balb/c mice (15-20 g) were obtained from Envigo (Hayward, Calif.) and acclimated for 2-3 days prior to use.
as §1, with “On experimental” for “On”, “flank. Tumors were allowed to grow until they were ˜50 mm^3, at which point animals were assigned to groups, 8 mice per group, to begin treatment.” for “flank.”, “30” for “27”

CCCCCCCCCCCCCC(=O)NCc1ccc(Cn2c(CCCC)nc3c(N)nc4ccccc4c32)cc1 [Compound No. 64-10a, N-(4-((4-amino-2-butyl-1H-imidazo[4,5-c]quinolin-1-yl)methyl)benzyl)tetradecanamide]
EC50 [1]: 2 nM | in vitro and in vivo TLR7 agonist potency relative to IMDQ ([1]; data not shown): equal in vitro and in vivo TLR7 agonist potency to IMDQ | CT26 tumor growth control compared to the vehicle control [2]: significant CT26 tumor growth control

CCCCc1nc2c(N)nc3ccccc3c2n1Cc1ccc(CN)cc1 [IMDQ, 1-(4-aminomethylbenzyl)-2-butyl-1H-imidazo[4,5-c]quinolin-4-amine]
serum IL-12p40 ([3]; 1 μg): levels above background | serum IL-6 ([3]; 5 μg): elevated levels | serum IL-12p40 ([3]; 5 μg): elevated levels | serum TNFα ([3]; 5 μg): elevated levels | gene expression response in popliteal lymph nodes at the lowest dose [4]: induced gene expression | tumor growth control in the injected tumor [5]: comparable improvements in tumor growth control over either agent administered individually | tumor growth control in the uninjected tumor [5]: comparable improvements in tumor growth control over either agent administered individually | expression level of APC maturation marker CD86 in popliteal lymph nodes [6]: induced activation/maturation of cells | expression level of CD86 on APCs in the spleen [6]: comparable

CCCCc1nc2c(N)nc3ccccc3c2n1Cc1ccc(CNC(=O)OCc2ccc(SCCNC(=O)CN=[N+]=[N-])cc2)cc1 [Compound No. 64-70]
CT26 tumor growth inhibition [7]: no CT26 tumor growth inhibition
